Assay results reported in BindingDB's records for doi:10.1016/j.bmcl.2018.11.015 (Boehringer Ingelheim Pharmaceuticals, 2019).
pIC50: −log10 of the molar value.

Experiment: Antagonist activity at CCR1 in human THP1 cells assessed as inhibition of chemotaxis after 30 mins by Celltiter-glo reagent based luminescence assay

Q: With CC(C)[C@@H](NC(=O)NCC(C)(C)O)C(=O)N1CC[C@](O)(c2ccc(Cl)cc2)C(C)(C)C1 as the molecule, how does the pIC50 read?
A: Its pIC50 is 8.82.

Q: With Cc1c(C(=O)NCc2cccc(C(F)(F)F)c2)cnn1-c1ccc(Cl)c(Cl)c1 as the molecule, how does the pIC50 read?
A: The pIC50 was 5.92.

Q: With COc1cc(N2CCN(C(=O)Cn3nc(-c4ncc[nH]4)c4cccnc43)CC2)ccc1Cl as the molecule, how does the pIC50 read?
A: Its pIC50 is 8.40.

Q: With CC(C)(O)c1ccc2c(c1)/C(=C\CCN1CC[C@](O)(c3ccc(Cl)cc3)C(C)(C)C1)c1cccnc1CO2 as the molecule, how does the pIC50 read?
A: Its pIC50 is 8.74.
